Test: Cytotoxicity against mouse L1210/0 cells after 48 hrs
Type: cell-based
Conditions: Mus musculus, L1210/0, 48 h

Compound	IC50
O=c1[nH]c(=O)n(COCCO)cc1Cl	> 200 µM
CC(O)Cn1cnc2c(F)nc(N)nc21 (stereo not given)	> 200 µM
O=c1ccn(CC2CCC(CO)C2)c(=O)[nH]1 (stereo not given)	> 200 µM
Nc1ccn(C[C@@H]2C[C@H](CO)c3ccccc32)c(=O)n1	> 200 µM
CC(=O)OC(C)Cn1cnc2c(Cl)nc(N)nc21 (stereo not given)	> 200 µM
C[S+]([O-])c1cn([C@H]2C[C@H](O)[C@@H](CO)O2)c(=O)[nH]c1=O (stereo not given in full)	> 200 µM
CC1(C)[C@@H](CCCO)C[C@H]1n1nnc2c(Cl)nc(N)nc21	> 200 µM
OC[C@@H]1CCC[C@H]1n1cnc2c(O)ncnc21	> 200 µM
COc1nc(I)nc2c1ncn2COCCO	> 200 µM
O=c1[nH]c(=O)n([C@H]2C[C@H](O)[C@@H](CO)O2)cc1/C=C/Cl	> 200 µM
C[C@H](O)C1CC(Cn2nnc3c(=O)[nH]cnc32)C1(C)C (stereo not given in full)	> 200 µM
CCCc1cn([C@H]2C[C@H](O)[C@@H](CO)O2)c(=O)[nH]c1=O	> 200 µM
CNc1nc2c(=O)[nH]c(N)nc2n1COCCO	> 200 µM
CC1(C)C(CO)CC1Cn1cnc2c(=O)[nH]c(N)nc21 (stereo not given)	> 200 µM
COc1c(C)c(-c2cn([C@H]3C[C@H](O)[C@@H](CO)O3)c(=O)[nH]c2=O)c(OC)c2ccccc12	> 200 µM
CCC#Cc1cn([C@H]2C[C@H](O)[C@@H](CO)O2)c(=O)[nH]c1=O	> 200 µM
Cc1ccc(S(=O)(=O)OCCC#Cc2cn([C@H]3C[C@H](O)[C@@H](CO)O3)c(=O)[nH]c2=O)cc1	> 200 µM
COc1cc(-c2cn([C@H]3C[C@H](O)[C@@H](CO)O3)c(=O)[nH]c2=O)c(OC)c(C)c1C	> 200 µM
CCC#Cc1cn([C@@H]2O[C@H](CO)[C@@H](O)[C@@H]2O)c(=O)[nH]c1=O	> 200 µM
COCC#Cc1cn([C@H]2C[C@H](O)[C@@H](CO)O2)c(=O)[nH]c1=O	> 200 µM
CC(O)Cn1cnc2c(N)nc(I)nc21 (stereo not given)	> 200 µM
Nc1nc(O)c2nnn([C@H]3CCCC[C@H]3CO)c2n1	> 200 µM

Compound	IC50
CCCC/C=C\c1cn([C@H]2C[C@H](O)[C@@H](CO)O2)c(=O)[nH]c1=O	> 200 µM
Nc1ncnc2c1ncn2C[C@@H]1CCC[C@H]1CO	> 200 µM
CC1(C)C(CO)CC1Cn1nnc2c(=O)[nH]c(N)nc21 (stereo not given)	> 200 µM
CN(C)c1nc2c(=O)[nH]c(N)nc2n1COCCO	> 200 µM
CC1(C)[C@@H](CCCO)C[C@H]1n1cnc2c(=O)[nH]c(N)nc21	> 200 µM
Nc1nc(O)c2ncn([C@H]3CCCC[C@H]3CO)c2n1	> 200 µM
C[C@H](O)C1CC(CCn2cnc3c(=O)[nH]cnc32)C1(C)C (stereo not given in full)	> 200 µM
Nc1nc2c(nc(O)n2COCCO)c(=O)[nH]1	> 200 µM
C=CC#Cc1cn([C@H]2C[C@H](O)[C@@H](CO)O2)c(=O)[nH]c1=O	> 200 µM
Nc1nc(I)nc2c1ncn2COCCO	> 200 µM
CC#Cc1cn([C@H]2C[C@H](O)[C@@H](CO)O2)c(=O)[nH]c1=O	> 200 µM
O=c1[nH]c(=O)n([C@H]2C[C@H](O)[C@@H](CO)O2)cc1C#Cc1ccccc1	> 200 µM
CO/N=C/C1CC(n2cnc3c(N)ncnc32)C(O)C1O (stereo not given)	> 200 µM
CC(C)(C)C#Cc1cn([C@H]2C[C@H](O)[C@@H](CO)O2)c(=O)[nH]c1=O	> 200 µM
CC(O)Cn1cnc2c(S)nc(F)nc21 (stereo not given)	> 200 µM
CCCCC#Cc1cn([C@H]2C[C@H](O)[C@@H](CO)O2)c(=O)[nH]c1=O	> 200 µM
CC1(C)[C@@H](CCCO)C[C@H]1n1nnc2c(=O)[nH]c(N)nc21	> 200 µM
OC[C@@H]1CCC[C@H]1Cn1cnc2c(O)ncnc21	> 200 µM
Nc1nc2c(nc(Br)n2COCCO)c(=O)[nH]1	> 200 µM
O=c1[nH]c(=O)n([C@H]2C[C@H](O)[C@@H](CO)O2)cc1C#CCCCO	> 200 µM
CCCCCCc1cn([C@H]2C[C@H](O)[C@@H](CO)O2)c(=O)[nH]c1=O	> 200 µM
O=c1[nH]c(=O)n([C@H]2C[C@H](O)[C@@H](CO)O2)cc1O	> 200 µM

Compound	IC50
CC(O)Cn1cnc2c(Cl)nc(I)nc21 (stereo not given)	> 200 µM
C[C@H](O)C1CC(Cn2cnc3c(=O)[nH]cnc32)C1(C)C (stereo not given in full)	> 200 µM
Nc1nc(Cl)c2ncn(COCCO)c2n1	> 200 µM
O=c1[nH]c(=O)n(COCCO)cc1F	> 200 µM
Nc1ccn(COCCO)c(=O)n1	> 200 µM
O=c1[nH]c(=O)n(COCCO)cc1Br	> 200 µM
Nc1nc(=O)ccn1COCCO	> 200 µM
CC(=O)OCCOCn1cnc2c(Cl)nc(N)nc21	> 200 µM
CN(C)c1ncnc2c1ncn2COCCO	> 200 µM
COC1=C(OC)C(O)(CCn2cnc3c(Cl)ncnc32)OC1=O (stereo not given)	> 200 µM
COC1=C(OC)C(O)(CCn2cnc3c(N)ncnc32)OC1=O (stereo not given)	> 200 µM
CCCCCC#Cc1cn([C@H]2C[C@H](O)[C@@H](CO)O2)c(=O)[nH]c1=O	> 200 µM
CC1(C)[C@@H](CO)CC[C@@]1(C)Cn1cc(Br)c(=O)[nH]c1=O	> 200 µM
CC1(C)[C@@H](CCCO)C[C@H]1n1cnc2c(Cl)nc(N)nc21	> 200 µM
CSc1cn([C@H]2C[C@H](O)[C@@H](CO)O2)c(=O)[nH]c1=O	> 200 µM
N#Cc1cn([C@H]2C[C@H](O)[C@@H](CO)O2)c(=O)[nH]c1=O	> 200 µM
O=c1[nH]cnc2c1nnn2[C@@H]1C[C@H](CO)[C@@H](CO)[C@H]1CO	> 200 µM
O=c1[nH]c(=O)n([C@H]2C[C@H](O)[C@@H](CO)O2)cc1C#CCO	> 200 µM
CC(=O)OC(C)Cn1cnc2c(N)nc(I)nc21 (stereo not given)	> 200 µM
O=c1[nH]c(=O)n([C@H]2C[C@H](O)[C@@H](CO)O2)cc1C#CCCO	> 200 µM
CC1(C)[C@@H](CCCO)C[C@H]1n1nnc2c(N)nc(N)nc21	> 200 µM
C#COc1cn([C@H]2C[C@H](O)[C@@H](CO)O2)c(=O)[nH]c1=O	> 200 µM

Compound	IC50
OCCOCn1cnc2c(O)ncnc21	> 200 µM
CC1(C)[C@@H](CO)CC[C@@]1(C)Cn1cnc2c(=O)[nH]cnc21	> 200 µM
O=c1[nH]cnc2c1ncn2C1CC(CO)C(CO)C1 (stereo not given)	> 200 µM
CS(=O)(=O)Cc1cn([C@H]2C[C@H](O)[C@@H](CO)O2)c(=O)[nH]c1=O	> 200 µM
O=c1[nH]c(=O)n([C@H]2C[C@H](O)[C@@H](CO)O2)cc1C1SCCS1	> 200 µM
Nc1nc2c(nc(Cl)n2COCCO)c(=O)[nH]1	> 200 µM
OC[C@H]1C[C@@H](Cn2cnc3c(O)ncnc32)c2ccccc21	> 200 µM
CCCC#Cc1cn([C@H]2C[C@H](O)[C@@H](CO)O2)c(=O)[nH]c1=O	> 200 µM
O=c1[nH]cnc2c1nnn2CC1CCC(CO)C1 (stereo not given)	> 200 µM
O=c1[nH]c(=O)n(CC2CCC(CO)C2)cc1I (stereo not given)	> 200 µM
CCO/N=C\C1OC(n2cnc3c(N)ncnc32)C(O)C1O (stereo not given)	> 200 µM
Nc1nc2c(nc(N)n2COCCO)c(=O)[nH]1	> 200 µM
O=c1[nH]cnc2c1nnn2C[C@H]1CCC[C@H]1CO	> 200 µM
O=c1[nH]cnc2c1ncn2CC1CCC(CO)C1 (stereo not given)	> 200 µM
Nc1nc(=O)n(COCCO)cc1[N+](=O)[O-]	> 200 µM
O=c1[nH]cnc2c1ncn2[C@@H]1C[C@@H]2COC[C@H]2[C@H]1CO	> 200 µM
Nc1ncnc2c1ncn2C1OC(/C=N/O)CC1O (stereo not given)	> 200 µM
COc1c(C)c(C)c(OC)c(-c2cn([C@H]3C[C@H](O)[C@@H](CO)O3)c(=O)[nH]c2=O)c1C	> 200 µM
CC1(C)[C@@H](CO)CC[C@@]1(C)Cn1nnc2c(=O)[nH]cnc21	> 200 µM

— ChEMBL document CHEMBL1142978, “Probing the anticancer activity of nucleoside analogues: a QSAR model approach using an internally consistent training set” (J Med Chem, 2007)
